Results: ChEMBL document CHEMBL1140743, “2-Oxotetrahydroquinoline-based antimalarials with high potency and metabolic stability” (J Med Chem, 2008)

Legend:
[1] = test system: Plasmodium falciparum; assay: Displacement of [3H]farnesylpyrophosphate from Plasmodium falciparum protein farnesyltransferase at 50 nM by scintillation proximity assay
[2] = test system: Plasmodium falciparum; assay: Antimalarial activity against chloroquine-resistant, pyrimethamine-resistant Plasmodium falciparum K1 in human red cells; format: functional; details: read-out: ED50 (the source's name)
[3] = test system: Plasmodium falciparum; assay: Displacement of [3H]farnesylpyrophosphate from Plasmodium falciparum protein farnesyltransferase at 0.5 nM by scintillation proximity assay
[4] = test system: Plasmodium falciparum; assay: Displacement of [3H]farnesylpyrophosphate from Plasmodium falciparum protein farnesyltransferase at 5 nM by scintillation proximity assay
[5] = test system: Plasmodium falciparum; assay: Antimalarial activity against chloroquine-sensitive Plasmodium falciparum 3D7 in human red cells; format: functional; details: read-out: ED50 (the source's name)
[6] = (§1) Metabolic stability assessed as half life in mouse liver microsomes; format: ADME, Microsome; details: liver microsomes
[7] = species: Rattus norvegicus; assay: Inhibition of rat protein farnesyltransferase at 5 nM
[8] = species: Rattus norvegicus; assay: Inhibition of rat protein farnesyltransferase at 5000 nM
[9] = species: Rattus norvegicus; assay: Inhibition of rat protein farnesyltransferase at 500 nM
[10] = species: Rattus norvegicus; assay: Inhibition of rat protein farnesyltransferase at 50 nM
[11] = test system: Liver; assay: as §1; format: ADME, Microsome; details: microsomes
[12] = test system: Plasmodium falciparum; assay: Antimalarial activity against Plasmodium falciparum in human red cells; format: functional; details: read-out: ED50 (the source's name)
[13] = Inhibition of Plasmodium falciparum PFT

half-life [6] [min]	t1/2 [11] [min]	Compound	inhibition [1] [%]	EC50 [2] [nM]	inhibition [3] [%]	inhibition [4] [%]	EC50 [5] [nM]	inhibition [7] [%]	inhibition [8] [%]	inhibition [9] [%]	inhibition [10] [%]	EC50 [12] [nM]	IC50 [13] [nM]
		Cn1cnc(S(=O)(=O)N(Cc2ccc(C(F)(F)F)o2)C2Cc3cc(C#N)ccc3N(Cc3cncn3C)C2=O)c1 (configuration not stated)	92	325	1	67	625						
31		Cn1cncc1CN1C(=O)C(N(CC(=O)NC(C)(C)C)S(=O)(=O)c2cccc(F)c2)Cc2cc(C#N)ccc21 (configuration not stated)	56		0	19	3600						
133		Cn1cnc(S(=O)(=O)N(Cc2ccc(S(C)(=O)=O)cc2)C2Cc3cc(C#N)ccc3N(Cc3cncn3C)C2=O)c1 (configuration not stated)	99		23	91	80	0	73	23	0		
		Cn1cnc(S(=O)(=O)N(CC(=O)NC(C)(C)C)C2Cc3cc(Br)ccc3N(Cc3cncn3C)C2=O)c1 (configuration not stated)	98		24	81	105						
		Cn1cnc(S(=O)(=O)NC2Cc3cc(C#N)ccc3N(Cc3cncn3C)C2=O)c1 (configuration not stated)	79		0	41							
		Cn1cncc1CN1C(=O)C(NS(=O)(=O)c2ccccn2)Cc2cc(Br)ccc21 (configuration not stated)	36	5000	0	15	5000						
	16	Cn1cnc(S(=O)(=O)N(Cc2ccc(S(C)(=O)=O)cc2)C2Cc3cc(C#N)ccc3N(Cc3cncn3C)C2)c1 (configuration not stated)											
17		Cn1cnc(S(=O)(=O)N(CC(=O)NC(C)(C)C)C2Cc3cc(C#N)ccc3N(Cc3cncn3C)C2)c1 (configuration not stated)											
		Cn1cncc1CN1C(=O)C(N(Cc2ccc(S(C)(=O)=O)cc2)S(=O)(=O)c2ccccn2)Cc2cc(C#N)ccc21 (configuration not stated)	91	275	15	60	1700						
		COC(=O)N1CCC(CN(C2Cc3cc(C#N)ccc3N(Cc3cncn3C)C2)S(=O)(=O)c2ccccn2)CC1 (configuration not stated)										15	0.5
		Cn1cnc(S(=O)(=O)N(C(CC(=O)OC(C)(C)C)C(=O)OC(C)(C)C)C2Cc3cc(C#N)ccc3N(Cc3cncn3C)C2=O)c1 (configuration not stated)	0	5000	0	0	5000						
		Cn1cnc(S(=O)(=O)N(Cc2ccc(S(C)(=O)=O)cc2)C2Cc3cc(Br)ccc3N(Cc3cncn3C)C2=O)c1 (configuration not stated)	86		0	26	850	0	56	0	0		
10		Cn1cnc(S(=O)(=O)N(CC(=O)OC(C)(C)C)C2Cc3cc(C#N)ccc3N(Cc3cncn3C)C2)c1 (configuration not stated)											
		Cn1cncc1CN1C(=O)C(N(CC(=O)NC(C)(C)C)S(=O)(=O)c2ccc3c(c2)OCCCO3)Cc2cc(C#N)ccc21 (configuration not stated)	22		0	4	5000						
		Cn1cnc(S(=O)(=O)NC2Cc3cc(Br)ccc3N(Cc3cncn3C)C2=O)c1 (configuration not stated)	60	3000	5	15	5000						
		Cn1cnc(S(=O)(=O)N(Cc2ccccc2F)C2Cc3cc(C#N)ccc3N(Cc3cncn3C)C2=O)c1 (configuration not stated)	97		33	71	800						
		C=C(C)CN(C1Cc2cc(C#N)ccc2N(Cc2cncn2C)C1=O)S(=O)(=O)c1cn(C)cn1 (configuration not stated)	86	2000	4	41	3200						
		COC(=O)C1CCC(CN(C2Cc3cc(C#N)ccc3N(Cc3cncn3C)C2=O)S(=O)(=O)c2cn(C)cn2)CC1 (configuration not stated)	98		21	83	105						
		Cc1ccccc1CN(C1Cc2cc(C#N)ccc2N(Cc2cncn2C)C1=O)S(=O)(=O)c1cn(C)cn1 (configuration not stated)	45	5000	9	12	5000						
		Cc1c(S(=O)(=O)N(CC(=O)NC(C)(C)C)C2Cc3cc(C#N)ccc3N(Cc3cncn3C)C2=O)ncn1C (configuration not stated)	24	5000	6	11	5000						
		Cn1cnc(S(=O)(=O)N(Cc2ccccc2)C2Cc3cc(C#N)ccc3N(Cc3cncn3C)C2=O)c1 (configuration not stated)	98	100	45	88	175	0	61	5	0		
		Cn1cnc(S(=O)(=O)N(Cc2ccc(F)cc2F)C2Cc3cc(C#N)ccc3N(Cc3cncn3C)C2=O)c1 (configuration not stated)	80		4	27							
		Cn1cnc(S(=O)(=O)N(CC(=O)c2ccsc2)C2Cc3cc(C#N)ccc3N(Cc3cncn3C)C2=O)c1 (configuration not stated)	98		26	79							
		Cn1cnc(S(=O)(=O)N(Cc2ccccn2)C2Cc3cc(C#N)ccc3N(Cc3cncn3C)C2=O)c1 (configuration not stated)	8		0	5	5000						
3		Cn1cnc(S(=O)(=O)N(Cc2ccc(C#N)cc2)C2Cc3cc(C#N)ccc3N(Cc3cncn3C)C2)c1 (configuration not stated)											

Compound	half-life [6] [min]	t1/2 [11] [min]	inhibition [1] [%]	EC50 [2] [nM]	inhibition [3] [%]	inhibition [4] [%]	EC50 [5] [nM]	inhibition [7] [%]	inhibition [8] [%]	inhibition [9] [%]	inhibition [10] [%]	EC50 [12] [nM]	IC50 [13] [nM]
Cn1cnc(S(=O)(=O)N(Cc2ccc(-n3cccn3)cc2)C2Cc3cc(C#N)ccc3N(Cc3cncn3C)C2=O)c1 (configuration not stated)	9		100	150	50	97	80	0	84	54	4		
Cn1cnc(S(=O)(=O)N(CC(=O)OC(C)(C)C)C2Cc3cc(C#N)ccc3N(Cc3cncn3C)C2=O)c1 (configuration not stated)	21		100	30	62	97	35	0	92	75	23		
Cn1cnc(S(=O)(=O)N(CC(=O)NC(C)(C)C)C2Cc3cc(C#N)ccc3N(Cc3cncn3C)C2=O)c1 (configuration not stated)	144		98	100	25	86	200	0	86	62	0		
Cn1cnc(S(=O)(=O)N(Cc2ccc(C#N)cc2)C2Cc3cc(C#N)ccc3N(Cc3cncn3C)C2=O)c1 (configuration not stated)	40		91	2100	26	56	2100						
